Results: patent US4914125A, “(S)-emopamil for the treatment of migraine” (priority 1988, dated 1990)

Key:
[1] = system: increase in blood pressure induced by serotonin; experiment: inhibition of the increase in blood pressure induced by serotonin in the pithed rat on intravenous administration; assay type: in vivo, rat (male Sprague-Dawley); conditions: for ED50: iv, serotonin 0.0215 mg/kg i.v., read-out: ED 50% (dose which inhibits the increase in blood pressure due to serotonin by 50%)
Method: The pithing is carried out by a rod through the orbit. […] The criterion of an action of a substance is the relative inhibition (δ-%) of the increase in blood pressure induced by serotonin (δmm Hg). The quantitative evaluation is by analysis of the linear regression (y =a+b x) between log dose (mg/kg) and relative inhibition (δ%) of the increase in blood pressure due to serotonin.

[2] = system: blood/brain barrier; conditions: rat, in vivo
From the text: (§1) The calculated BUI values indicate the cerebral uptake as a percentage of the water uptake.

[3] = system: blood/brain barrier; experiment: brain uptake index (BUI) after injection into the common carotid artery of the anesthetized rat, single passage through the cerebral capillaries; conditions: [14C]-labeled test substance, [3H]-labeled water as internal standard, HEPES-buffered Ringer solution pH=7.35, anesthetized rat
From the text: as §1

[4] = system: serotonin; experiment: serotonin-antagonistic action on oral administration; assay type: in vivo; conditions: (S)-emopamil vs verapamil
[5] = system: serotonin; conditions: by comparison with known serotonin antagonists; cited from earlier work

| BUI value (cerebral uptake as a percentage of the water uptake) [3] [%] | SMILES | antiserotonin action (in words) ([1]; compared with known serotonin antagonists and verapamil) | ED50 ([1]; pithed rat, i.v.) [mg/kg] | serotonin-antagonistic action relative to verapamil (times) ([1]; pithed rat, i.v., (S)-emopamil vs verapamil) | passage of the blood/brain barrier (in words) [2] | superiority to verapamil in the serotonin-antagonistic action (factor) [4] | serotonin-antagonistic action (in words) [5] |
| --- | --- | --- | --- | --- | --- | --- | --- |
| 110 | CC(C)[C@@](C#N)(CCCN(C)CCc1ccccc1)c1ccccc1 [(S)-Emopamil, 2-isopropyl-5-(methyl-phenethylamino)-2-phenylvaleronitrile] | reaches the potency of known serotonin antagonists and exceeds by a multiple that of the comparison compound verapamil | 0.02 | 18 | passes the blood/brain barrier more rapidly and in considerably larger amounts than does verapamil | 4.6 |  |
|  | COc1ccc(CCN(C)CCCC(C#N)(c2ccc(OC)c(OC)c2)C(C)C)cc1OC (centres unmarked) [Verapamil, reference compound] |  | 0.36 |  |  |  | weak by comparison with known serotonin antagonists |
